Test: xn = mol fraction of the nth substance listed
Details: Liquid, Taylor dispersion method, x2 = 0

Cc1ccccc1 [toluene] + O=C=O
Details | binary diffusion coefficient [m2/s]
298 K, 1000 kPa | 5.53e-09
298 K, 11000 kPa | 5.09e-09
298 K, 30000 kPa | 4.77e-09
298 K, 48000 kPa | 4.28e-09
298 K, 68000 kPa | 3.92e-09
323 K, 1000 kPa | 7.28e-09
323 K, 10000 kPa | 6.78e-09
323 K, 30000 kPa | 6.32e-09
323 K, 49000 kPa | 5.7e-09
323 K, 66000 kPa | 5.17e-09
348 K, 1000 kPa | 9.26e-09
348 K, 11000 kPa | 8.62e-09
348 K, 30000 kPa | 8.02e-09
348 K, 48000 kPa | 7.31e-09
348 K, 67000 kPa | 6.54e-09
373 K, 1000 kPa | 1.14e-08
373 K, 10000 kPa | 1.04e-08
373 K, 30000 kPa | 9.81e-09
373 K, 51000 kPa | 8.94e-09
373 K, 67000 kPa | 8e-09
398 K, 1000 kPa | 1.38e-08
398 K, 10000 kPa | 1.24e-08
398 K, 30000 kPa | 1.17e-08
398 K, 48000 kPa | 1.05e-08
398 K, 68000 kPa | 9.6e-09
423 K, 1100 kPa | 1.6e-08
423 K, 10000 kPa | 1.5e-08
423 K, 30000 kPa | 1.4e-08
423 K, 50000 kPa | 1.23e-08
423 K, 67000 kPa | 1.14e-08

CCCCCCCCCC [decane] + O=C=O
Details | binary diffusion coefficient [m2/s]
298 K, 1100 kPa | 4.69e-09
298 K, 22000 kPa | 4e-09
298 K, 45000 kPa | 3.22e-09
298 K, 68000 kPa | 2.84e-09
323 K, 1100 kPa | 6.44e-09
323 K, 22000 kPa | 5.41e-09
323 K, 46000 kPa | 4.39e-09
323 K, 68000 kPa | 3.91e-09
373 K, 1100 kPa | 1.04e-08
373 K, 22000 kPa | 8.76e-09
373 K, 44000 kPa | 7.08e-09
373 K, 67000 kPa | 6.34e-09
423 K, 1100 kPa | 1.51e-08
423 K, 21000 kPa | 1.27e-08
423 K, 43000 kPa | 1.02e-08
423 K, 66000 kPa | 9.17e-09

CCCCCC [hexane] + O=C=O
Details | binary diffusion coefficient [m2/s]
298 K, 1300 kPa | 8.32e-09
298 K, 23000 kPa | 7.27e-09
298 K, 49000 kPa | 6.06e-09
298 K, 65000 kPa | 5.13e-09
323 K, 1200 kPa | 1.05e-08
323 K, 22000 kPa | 9.27e-09
323 K, 50000 kPa | 7.61e-09
323 K, 66000 kPa | 7.15e-09
373 K, 1200 kPa | 1.58e-08
373 K, 22000 kPa | 1.34e-08
373 K, 49000 kPa | 1.1e-08
373 K, 64000 kPa | 1.03e-08
423 K, 1200 kPa | 1.87e-08
423 K, 22000 kPa | 1.79e-08
423 K, 48000 kPa | 1.49e-08
423 K, 64000 kPa | 1.37e-08

CCCCCCCC [octane] + O=C=O
Details | binary diffusion coefficient [m2/s]
298 K, 1000 kPa | 6.32e-09
298 K, 11000 kPa | 5.66e-09
298 K, 33000 kPa | 4.72e-09
298 K, 50000 kPa | 4.28e-09
298 K, 66000 kPa | 3.83e-09
323 K, 900 kPa | 8.19e-09
323 K, 11000 kPa | 7.36e-09
323 K, 32000 kPa | 6.1e-09
323 K, 51000 kPa | 5.62e-09
323 K, 68000 kPa | 5.1e-09
348 K, 900 kPa | 1.04e-08
348 K, 11000 kPa | 8.98e-09
348 K, 33000 kPa | 7.7e-09
348 K, 50000 kPa | 7.07e-09
348 K, 69000 kPa | 6.54e-09
373 K, 1100 kPa | 1.26e-08
373 K, 11000 kPa | 1.11e-08
373 K, 31000 kPa | 9.46e-09
373 K, 50000 kPa | 8.87e-09
373 K, 67000 kPa | 8.01e-09
398 K, 1100 kPa | 1.48e-08
398 K, 11000 kPa | 1.34e-08
398 K, 31000 kPa | 1.14e-08
398 K, 51000 kPa | 1.06e-08
398 K, 69000 kPa | 9.67e-09
423 K, 1100 kPa | 1.67e-08
423 K, 11000 kPa | 1.62e-08
423 K, 29000 kPa | 1.36e-08
423 K, 51000 kPa | 1.27e-08
423 K, 65000 kPa | 1.14e-08

From the NIST ThermoML archive (doi:10.1021/acs.jced.6b00691)
